The values below come from BindingDB's records for doi:10.1124/mol.61.2.415 (University of Ferrara, 2002).

This test concerns the target T1, Adenosine receptor A3 (Homo sapiens, UniProt P0DMS8).
T1 sequence (P0DMS8 whole entry): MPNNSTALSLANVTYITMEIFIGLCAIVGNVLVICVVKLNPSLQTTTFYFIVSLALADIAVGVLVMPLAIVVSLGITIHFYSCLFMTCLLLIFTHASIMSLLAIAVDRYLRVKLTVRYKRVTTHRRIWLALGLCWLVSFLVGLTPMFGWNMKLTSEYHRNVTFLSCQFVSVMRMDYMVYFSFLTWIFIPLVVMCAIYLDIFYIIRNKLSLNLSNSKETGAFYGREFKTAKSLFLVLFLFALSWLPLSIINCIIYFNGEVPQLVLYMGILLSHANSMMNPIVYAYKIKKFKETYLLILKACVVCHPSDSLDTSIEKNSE

“And” between values parts separate entries of the source, which are not always exact repeats. Equal entries are not always repeated.

For `Nc1nc2ccc(Cl)cc2c2nc(-c3ccco3)nn12`, the Ki (usually the equilibrium dissociation constant of an inhibitor or competing ligand from its target) was found to be 122 nM.
For the compound `Nc1nc2c(cnn2CCc2ccccc2)c2nc(-c3ccco3)nn12`, the inhibitory constant (Ki) is greater than 10000 nM.
For the compound `CCCCn1cc2c(nc(NC(=O)Nc3ccccc3)n3nc(-c4ccco4)nc23)n1`, the inhibitory constant (Ki) is 1.4 nM and 0.93 nM.
Regarding `Cn1cc2c(nc(NC(=O)Nc3ccccc3)n3nc(-c4ccco4)nc23)n1`, the Ki was 1.7 nM and 1.5 nM.
The same measure for `CCn1cc2c(nc(NC(=O)Nc3ccccc3)n3nc(-c4ccco4)nc23)n1`: 1.2 nM; for `CCCCC#Cc1nc(N)c2ncn([C@@H]3O[C@H](C(=O)NCC)[C@H](O)C3O)c2n1` (stereo partly drawn) [(2S,3R,5R)-5-[6-amino-2-(hex-1-yn-1-yl)-9H-purin-9-yl]-N-ethyl-3,4-dihydroxyoxolane-2-carboxamide]: 750 nM and 740 nM; for `CCCn1cc2c(nc(NC(=O)Nc3ccccc3)n3nc(-c4ccco4)nc23)n1` [MRE 3055F20]: 1 nM and 0.53 nM.
